How the values were obtained:
Experiment in all cases: relative viability (nuclei count vs DMSO), 5 days (fraction); higher = more cells survive
Tipifarnib + Alpelisib = compound: Cn1cncc1[C@@](N)(c1ccc(Cl)cc1)c1ccc2c(c1)c(-c1cccc(Cl)c1)cc(=O)n2C [Tipifarnib] + Cc1nc(NC(=O)N2CCC[C@H]2C(N)=O)sc1-c1ccnc(C(C)(C)C(F)(F)F)c1 [Alpelisib] (partner 2 µM)
In short: (§1)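 Lung cancer cell lines in 1536-well plates were dosed by pin tool the day after seeding, either with one drug alone or with a fixed anchor-drug dose plus five library-drug doses (not always all listed) in √10 steps. After 5 days, cells were fixed and their nuclei stained in one step (final 0.05% Triton X-100, 1% formaldehyde, 1 ug/ml Hoechst), then counted on 4× images. Relative viability is the nuclei count in treated wells divided by that in vehicle wells. Values are medians of duplicate plates.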

Tipifarnib + Palbociclib = compound: Cn1cncc1[C@@](N)(c1ccc(Cl)cc1)c1ccc2c(c1)c(-c1cccc(Cl)c1)cc(=O)n2C [Tipifarnib] + CC(=O)c1c(C)c2cnc(Nc3ccc(N4CCNCC4)cn3)nc2n(C2CCCC2)c1=O [Palbociclib] (partner 0.5 µM)
In short: as §1

Tipifarnib + Bortezomib = compound: Cn1cncc1[C@@](N)(c1ccc(Cl)cc1)c1ccc2c(c1)c(-c1cccc(Cl)c1)cc(=O)n2C [Tipifarnib] + CC(C)C[C@H](NC(=O)[C@H](Cc1ccccc1)NC(=O)c1cnccn1)B(O)O [Bortezomib] (partner 0.002 µM)
In short: as §1

Tipifarnib + Dasatinib = compound: Cn1cncc1[C@@](N)(c1ccc(Cl)cc1)c1ccc2c(c1)c(-c1cccc(Cl)c1)cc(=O)n2C [Tipifarnib] + Cc1nc(Nc2ncc(C(=O)Nc3c(C)cccc3Cl)s2)cc(N2CCN(CCO)CC2)n1 [Dasatinib] (partner 0.075 µM)
In short: as §1

| Cell Line | relative viability (Tipifarnib + Alpelisib; first compound 0.01 µM) | relative viability (Tipifarnib + Alpelisib; first compound 0.03162 µM) | relative viability (Tipifarnib + Alpelisib; first compound 0.1 µM) | relative viability (Tipifarnib + Alpelisib; first compound 0.3162 µM) | relative viability (Tipifarnib + Alpelisib; first compound 1 µM) | relative viability (Tipifarnib + Palbociclib; first compound 0.01 µM) | relative viability (Tipifarnib + Palbociclib; first compound 0.03162 µM) | relative viability (Tipifarnib + Palbociclib; first compound 0.1 µM) | relative viability (Tipifarnib + Palbociclib; first compound 0.3162 µM) | relative viability (Tipifarnib + Palbociclib; first compound 1 µM) | relative viability (Tipifarnib + Bortezomib; first compound 0.01 µM) | relative viability (Tipifarnib + Bortezomib; first compound 0.03162 µM) | relative viability (Tipifarnib + Bortezomib; first compound 0.1 µM) | relative viability (Tipifarnib + Bortezomib; first compound 0.3162 µM) | relative viability (Tipifarnib + Bortezomib; first compound 1 µM) | relative viability (Tipifarnib + Dasatinib; first compound 0.01 µM) | relative viability (Tipifarnib + Dasatinib; first compound 0.03162 µM) | relative viability (Tipifarnib + Dasatinib; first compound 0.1 µM) | relative viability (Tipifarnib + Dasatinib; first compound 0.3162 µM) | relative viability (Tipifarnib + Dasatinib; first compound 1 µM) |
| --- | --- | --- | --- | --- | --- | --- | --- | --- | --- | --- | --- | --- | --- | --- | --- | --- | --- | --- | --- | --- |
| LU99A | 0.442 | 0.36 | 0.297 | 0.261 | 0.238 | 0.359 | 0.349 | 0.264 | 0.216 | 0.237 | 0.803 | 0.712 | 0.477 | 0.53 | 0.314 | 0.68 | 0.524 | 0.432 | 0.205 | 0.306 |
| NCI-H1355 | 0.874 | 0.804 | 0.678 | 0.518 | 0.599 | 0.399 | 0.398 | 0.351 | 0.325 | 0.322 | 1.17 | 0.992 | 0.806 | 0.722 | 0.813 | 0.684 | 0.687 | 0.524 | 0.496 | 0.443 |
| NCI-H520 | 1.11 | 0.823 | 0.845 | 0.458 | 0.471 | 0.181 | 0.238 | 0.254 | 0.162 | 0.2 | 0.506 | 0.203 | 0.636 | 0.246 | 0.173 | 0.163 | 0.185 | 0.183 | 0.163 | 0.142 |
| NCI-H661 | 0.648 | 0.901 | 0.399 | 0.598 | 0.446 | 0.435 | 0.349 | 0.36 | 0.315 | 0.35 | 0.967 | 0.818 | 0.569 | 0.598 | 0.744 | 1.11 | 0.949 | 0.914 | 0.601 | 0.619 |
| NCI-H650 | 1.07 | 0.988 | 0.827 | 0.661 | 0.6 | 0.368 | 0.321 | 0.379 | 0.269 | 0.233 | 0.781 | 0.36 | 0.697 | 0.539 | 0.346 | 0.421 | 0.375 | 0.366 | 0.284 | 0.266 |
| NCI-H647 | 1.05 | 0.822 | 0.838 | 0.44 | 0.488 | 0.406 | 0.288 | 0.297 | 0.159 | 0.138 | 0.911 | 0.59 | 0.678 | 0.589 | 0.273 | 0.205 | 0.159 | 0.167 | 0.127 | 0.0682 |
| 201T | 1.01 | 1.04 | 1.04 | 0.98 | 0.977 | 0.352 | 0.373 | 0.357 | 0.341 | 0.354 | 1.12 | 1.14 | 1.06 | 1.05 | 0.788 | 0.572 | 0.619 | 0.582 | 0.58 | 0.498 |
| NCI-H838 | 1.02 | 0.777 | 0.712 | 0.553 | 0.659 | 0.223 | 0.206 | 0.214 | 0.187 | 0.195 | 0.713 | 0.733 | 0.589 | 0.439 | 0.41 | 0.322 | 0.296 | 0.233 | 0.263 | 0.237 |
| LK-2 | 1.21 | 1.06 | 0.827 | 0.544 | 0.639 | 0.586 | 0.543 | 0.481 | 0.474 | 0.42 | – | – | – | – | – | 0.276 | 0.261 | 0.27 | 0.299 | 0.191 |
| NCI-H1944 | 0.805 | 0.742 | 0.648 | 0.54 | 0.572 | 0.324 | 0.31 | 0.288 | 0.28 | 0.273 | – | – | – | – | – | 0.213 | 0.173 | 0.161 | 0.17 | 0.169 |
| NCI-H1650 | – | – | – | – | – | 0.295 | 0.211 | 0.243 | 0.205 | 0.183 | 0.224 | 0.204 | 0.202 | 0.209 | 0.191 | 0.274 | 0.254 | 0.24 | 0.22 | 0.202 |
| NCI-H596 | 0.516 | 0.547 | 0.0161 | 0.436 | 0.356 | – | – | – | – | – | 1.05 | 1.12 | 1.17 | 0.913 | 0.699 | 0.612 | 0.653 | 0.527 | 0.423 | 0.384 |
| SK-MES-1 | 1.03 | 0.897 | 0.634 | 0.648 | 0.501 | 0.337 | 0.3 | 0.304 | 0.245 | 0.3 | – | – | – | – | – | 0.44 | 0.341 | 0.337 | 0.18 | 0.249 |
| NCI-H2170 | 0.839 | 0.818 | 0.74 | 0.671 | 0.699 | 0.362 | 0.377 | 0.305 | 0.246 | 0.27 | – | – | – | – | – | 0.688 | 0.805 | 0.601 | 0.636 | 0.462 |
| NCI-H358 | 0.918 | 0.748 | 0.8 | 0.504 | 0.431 | 0.152 | 0.127 | 0.118 | 0.129 | 0.144 | – | – | – | – | – | 0.142 | 0.224 | 0.157 | 0.169 | 0.155 |
| NCI-H1563 | 0.991 | 0.867 | 0.862 | 0.893 | 0.757 | – | – | – | – | – | 0.996 | 0.881 | 0.87 | 0.871 | 0.748 | 0.44 | 0.53 | 0.453 | 0.489 | 0.387 |
| EBC-1 | 0.697 | 0.371 | 0.36 | 0.331 | 0.274 | – | – | – | – | – | 0.46 | 0.356 | 0.359 | 0.295 | 0.309 | – | – | – | – | – |
| Calu-6 | 0.831 | 0.667 | 0.609 | 0.412 | 0.505 | – | – | – | – | – | 0.928 | 0.662 | 0.634 | 0.529 | 0.544 | – | – | – | – | – |
| HCC-44 | 0.742 | 0.747 | 0.62 | 0.615 | 0.58 | 0.952 | 0.921 | 0.945 | 0.92 | 0.926 | 0.87 | 0.684 | 0.78 | 0.609 | 0.461 | – | – | – | – | – |

— the supplement of paper PMC10307832
